# Measured values from US20250320211A1, “COMPOUND, COMPOSITION, AND ELECTROPHOTOGRAPHIC PHOTORECEPTOR” (MITSUBISHI CHEMICAL CORPORATION, priority 2022, published 2025).
# Test: Evaluation of solubility in organic solvent
# Format: physicochemical
# Settings: toluene/2-propanol mixed solvent
# Method: Compounds 1 to 2 or Comparative Compounds 1 to 5 were respectively added to a mixed solvent of toluene/2-propanol=3/7 (mass ratio) at room temperature (25° C.) so as to have a concentration of 8% by mass, and stirred for 10 minutes with a rotor without heating or cooling. The state of dissolution was then visually observed, and the solubility was evaluated according to the following criteria.
# When any residue was observed, the mixture was heated in a water bath at a constant temperature (40° C.) for 10 minutes as described below, and the state of dissolution was visually observed again to evaluate the solubility.
row,SMILES,solubility in organic solvents (in words)
1,CCCCCCC(CCCCCC)N1C(=O)c2ccc3c4ccc5c6c(ccc(c7ccc(c2c37)C1=O)c64)C(=O)N(C(CCCCCC)CCCCCC)C5=O [Comparative Compound 2],poor solubility
2,C=CC(=O)OCCOC(=O)CCC(=O)OCC(CC(C)C)N1C(=O)c2ccc3c4ccc5c6c(ccc(c7ccc(c2c37)C1=O)c64)C(=O)N(C(COC(=O)CCC(=O)OCCOC(=O)C=C)CC(C)C)C5=O (stereo not shown) [Comparative Compound 3],poor solubility
3,C=C(C)C(=O)OCC(COC(=O)C(=C)C)OC(=O)CCC(=O)OCC(CC(C)C)N1C(=O)c2ccc3c4ccc5c6c(ccc(c7ccc(c2c37)C1=O)c64)C(=O)N(C(COC(=O)CCC(=O)OC(COC(=O)C(=C)C)COC(=O)C(=C)C)CC(C)C)C5=O (stereo not shown) [Comparative Compound 4],excellent solubility in organic solvents
4,C=C(C)C(=O)OCC(COC(=O)C(=C)C)OC(=O)CCC(=O)OCC(COC(=O)CCC(=O)OC(COC(=O)C(=C)C)COC(=O)C(=C)C)N1C(=O)c2ccc3c4ccc5c6c(ccc(c7ccc(c2c37)C1=O)c64)C(=O)N(C(COC(=O)CCC(=O)OC(COC(=O)C(=C)C)COC(=O)C(=C)C)COC(=O)CCC(=O)OC(COC(=O)C(=C)C)COC(=O)C(=C)C)C5=O [Comparative Compound 5],excellent solubility in organic solvents
